Assay results published in PubChem BioAssay (NCI).
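A five-concentration, 48-hour dose response in 96-well plates underlies each endpoint, interpolated linearly between surrounding concentrations. GI50: concentration for 50% inhibition of growth. TGI marks complete inhibition of growth.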

What was measured:
Assay in all cases: NCI tumour cell line growth inhibition, 48 h
DLD-1 colon = system: DLD-1 colon
DMS 114 small cell lung = system: DMS 114 small cell lung
HOP-18 NSCLC = system: HOP-18 NSCLC
M19-MEL melanoma = system: M19-MEL melanoma
P388 leukemia = system: P388 leukemia
P388/ADR leukemia = system: P388/ADR leukemia
SN12K1 renal = system: SN12K1 renal
XF 498 CNS = system: XF 498 CNS
786-0 renal = system: 786-0 renal
DMS 273 small cell lung = system: DMS 273 small cell lung
LXFL 529 NSCLC = system: LXFL 529 NSCLC

For `COC1OC(=O)[C@H]2O[N+]([O-])=C(C)[C@@H]12` (some centres not stated), the TGI (DLD-1 colon) was over 100 µM, the TGI (DMS 114 small cell lung) was over 100 µM and the TGI (HOP-18 NSCLC) was over 100 µM. The TGI (M19-MEL melanoma) was over 100 µM, the TGI (P388 leukemia) was over 100 µM and the TGI (P388/ADR leukemia) was over 100 µM. For the same molecule, the TGI (SN12K1 renal) was over 100 µM and the TGI (XF 498 CNS) was over 100 µM.

Molecule `C/C(=N\NC(=S)NC(C)C)c1nc2ncccc2[nH]1` has a TGI (786-0 renal) of over 100 µM.

For `Nc1ccccc1Nc1ccccc1C(=O)[O-].Nc1ccccc1Nc1ccccc1C(=O)[O-].[Cu+2]`, the TGI (786-0 renal) was over 100 µM and the TGI (XF 498 CNS) was over 100 µM.

Molecule `O=C(NS(=O)(=O)Nc1ccc(Cl)cc1)OCc1ccc(Cl)cc1Cl` has a TGI (786-0 renal) of over 100 µM.

Work on `O=[Se]([O-])c1ccccc1.O=[Se]([O-])c1ccccc1.[OH3+].[OH3+].[Pt+2]` yielded a GI50 (DLD-1 colon) of 4.85 µM, a TGI (DLD-1 colon) of 24.3 µM and a GI50 (DMS 114 small cell lung) of 3.73 µM. The TGI (DMS 114 small cell lung) was 20.8 µM, the GI50 (DMS 273 small cell lung) was 14.6 µM and the TGI (DMS 273 small cell lung) was 36 µM. For the same molecule, the GI50 (HOP-18 NSCLC) was 15.1 µM, the TGI (HOP-18 NSCLC) was 60.6 µM and the GI50 (M19-MEL melanoma) was 8.43 µM. It also gave a TGI (M19-MEL melanoma) of 44.8 µM, a GI50 (P388 leukemia) of 1.84 µM and a TGI (P388 leukemia) of 5.67 µM. It also gave a GI50 (P388/ADR leukemia) of 2.12 µM, a TGI (P388/ADR leukemia) of 11.8 µM and a GI50 (SN12K1 renal) of 4.5 µM. It also gave a TGI (SN12K1 renal) of 15 µM, a GI50 (XF 498 CNS) of 7.72 µM and a TGI (XF 498 CNS) of 26.2 µM.

For `CCC(=O)C(c1ccccc1)c1ccccn1` (configuration not stated), the TGI (786-0 renal) was over 100 µM.

With `CC(C)CC(N)C(=O)OCN1C(=O)C2C3C=CC(C2C1=O)C1C2C(=O)N(COC(=O)C(N)CC(C)C)C(=O)C2C31` (configuration not stated) the TGI (786-0 renal) was over 100 µM, the TGI (DLD-1 colon) was over 100 µM and the TGI (DMS 114 small cell lung) was over 100 µM. The TGI (DMS 273 small cell lung) was over 100 µM, the TGI (HOP-18 NSCLC) was over 100 µM and the TGI (LXFL 529 NSCLC) was over 100 µM.
